This note sets out measurements from ChEMBL document CHEMBL1201862, “PubChem BioAssay data set” (2004).

Among the test systems are LXFL 529; HOP-18; BT-549; Hs-578T; MCF7; MDA-N; PC-3; 786-0; MDA-MB-231.
What all share (test): NCI tumour cell line growth inhibition, 48 h

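Growth conditions: 96-well plates. Treatment: test compound, 48 hours, 5 concentrations. Analysis: linear interpolation between bracketing concentrations; unreached endpoints set to highest concentration. GI50 = concentration required for 50% inhibition of growth.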 The source made the active and inactive calls. Rule as the data show it: active = GI50 up to about 1.1 µM and inactive = higher.

For `O=C(Nc1ccc(F)cc1)C(=O)C(C(=O)c1ccccc1F)C1OC(=O)c2ccccc21` (centres undefined), the GI50 with LXFL 529 is 34.8 µM (inactive).
For the compound `CCOCc1cc(=O)c2c(O)cc3c(c2o1)CCC(C)(C)O3`, the GI50 with HOP-18 and in the experiment on LXFL 529 was > 100 µM (inactive) each time.
In the case of `COc1cc(S(=O)(=O)Nc2ccc(-c3csc(N4C(=O)C(C)SC4c4cccc(Oc5ccccc5)c4)n3)cc2)ccc1Cl` (centres undefined), the GI50 in the experiment on BT-549 was 26.7 µM (inactive); in the experiment with Hs-578T it was 34 µM (inactive); in the experiment with MCF7, 24.1 µM (inactive); in the experiment on MDA-N, 27.7 µM (inactive); with PC-3 it was 43.9 µM (inactive).
Turning to `O=[S@@]1Nc2ccc(Br)cc2S1`, the GI50 in the experiment on 786-0 is > 100 µM (inactive); with LXFL 529 it was 0.282 µM (active).
In the case of `CCOC(=O)C(Cc1c(-c2[nH]c3ccccc3c2CC(NC(=O)CNC(C)=O)C(=O)OCC)[nH]c2ccccc12)NC(=O)CNC(C)=O` (centres undefined), the GI50 in the experiment with BT-549 is > 100 µM (inactive); in the experiment with Hs-578T, 32.6 µM (inactive); in the experiment on MDA-MB-231, 16.5 µM (inactive); in the experiment on MDA-N, > 100 µM (inactive); in the experiment on PC-3 it was > 100 µM (inactive).
For `N#C[C@@H](c1nc2ccccc2s1)c1ncccc1[N+](=O)[O-]`, the GI50 in the experiment on 786-0 is 6.19 µM (inactive); in the experiment with BT-549 it was 5 µM (inactive); with Hs-578T, 5.55 µM (inactive); with MCF7, 5.11 µM (inactive); with MDA-MB-231, 7.83 µM (inactive); with MDA-N, 7.46 µM (inactive). Moreover, the GI50 in the experiment with PC-3 was 5.16 µM (inactive).
Take `Clc1ccc(N/N=C(\c2ccccc2)c2ccccn2)nc1`: the GI50 was 0.0367 µM (active) in the experiment on 786-0; 1.85 µM (inactive) in the experiment on BT-549; 0.456 µM (active) with Hs-578T; < 0.01 µM (active) with MCF7; < 0.0187 µM (active) with MDA-MB-231; 2.48 µM (inactive) in the experiment on MDA-N. Also, the GI50 with PC-3 was 0.0463 µM (active).
Turning to `CC(=O)N(C(=O)CC(=O)N1N=C(C)C(/N=N/c2cccc([N+](=O)[O-])c2)C1=O)c1ccc(Cl)cc1` (centres undefined), the GI50 with 786-0, in the experiment on BT-549, with Hs-578T, in the experiment on MCF7, with MDA-MB-231 and in the experiment on MDA-N was > 10 µM (inactive) in each case. In the experiment on PC-3, the GI50 was > 10 µM (inactive).
For `Cc1cc(C)c(C2=NO[C@@H]3[C@H]2C(=O)C=C2N(Cc4ccccc4)CCO[C@@]23O)c(C)c1`, the GI50 in the experiment with HOP-18 and in the experiment on MCF7 was > 100 µM (inactive) each time.
Take `CCOC(=O)c1nc2ccc(OC)cc2c2c1Cc1ccccc1-2`: the GI50 in the experiment on LXFL 529 is > 100 µM (inactive).
Turning to `CC1CC=CC(O)C1` (centres undefined), the GI50 in the experiment with HOP-18 and in the experiment with MCF7 was > 100 µM (inactive) throughout.
As for `C[C@H](C(=O)O)C(=O)NC(=O)N(Cc1ccccc1)N=O`, the GI50 with 786-0 was > 100 µM (inactive); in the experiment on HOP-18 it was 0.0525 µM (active); in the experiment on LXFL 529, > 100 µM (inactive).
With `CN(C(=O)C12C3C4C1C1C2C3C41C(=O)C(C)(C)C)C(C)(C)C` (centres undefined), the GI50 in the experiment with 786-0 and with LXFL 529 was > 100 µM (inactive) throughout.
As to `O=S(O)c1cc(Cl)cc(Cl)c1O`, the GI50 with LXFL 529 was > 100 µM (inactive).
On to `CN(C)CCNC(=O)c1ccc(Cl)c2ccc(-c3ccccc3)nc12`, for which the GI50 is 3.26 µM (inactive) with HOP-18 and 3.31 µM (inactive) in the experiment with MCF7.
For the compound `CC(C)C(=O)N1C(=O)O[C@@H](c2ccccc2)[C@H]1C`, the GI50 with 786-0, in the experiment on HOP-18 and in the experiment on LXFL 529 was > 100 µM (inactive) throughout.
Turning to `O=c1[nH]cnc2sc(=S)c3c(c12)CCC3`, the GI50 in the experiment on 786-0 is 15.5 µM (inactive); with Hs-578T it was 48.5 µM (inactive); with MCF7 it was > 100 µM (inactive); in the experiment on MDA-MB-231, 32.6 µM (inactive); in the experiment with PC-3, 37 µM (inactive).
On to `NC(CCOCCP(=O)(O)CCOCCC(N)C(=O)O)C(=O)O` (centres undefined), for which the GI50 with Hs-578T, in the experiment with MCF7 and in the experiment on MDA-MB-231 was > 100 µM (inactive) each time.
Take `O=S(O)CCCCSSCCCCS(=O)(=O)S`: the GI50 in the experiment on 786-0 was > 100 µM (inactive); with HOP-18, 84.3 µM (inactive); in the experiment with LXFL 529, 22.2 µM (inactive).
Consider `O=S(O)c1cc(Cl)cc(Cl)c1OCc1ccccc1`, for which the GI50 in the experiment on LXFL 529 was > 100 µM (inactive).
In the case of `COc1cc(C2c3cc4c(cc3[C@@H](Nc3cccc([N+](=O)[O-])c3)C3COC(=O)[C@H]23)OCO4)cc(OC)c1O` (some centres undefined), the GI50 with HOP-18 is 3.37 µM (inactive); in the experiment on MCF7 it was 0.944 µM (active).
Turning to `OCC1C2C=CC(O2)[C@H]1CO` (some centres undefined), the GI50 in the experiment on 786-0, with HOP-18 and in the experiment with LXFL 529 was > 100 µM (inactive) in each case.
